Results on 9 compounds are retold here after PubChem BioAssay (NCI).

Holding throughout (test): growth of human tumour cells (NCI), 48 h
Assay [1] deals with MDA-MB-231 breast.
Assay [2] relates to MDA-MB-435.
For assay [3], the system named is OVCAR-4 ovarian.
In assay [4] the test system is T-47D breast.
Assay [5] concerns EKVX NSCLC.
In assay [6] the test system is CAKI-1 renal.
Assay [7] deals with COLO 205 colon.
For assay [8], the system named is MOLT-4 leukemia.
Assay [9] deals with SNB-19 CNS.
In assay [10] the test system is RPMI-8226 leukemia.

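Cells were grown in 96-well plates and exposed to each compound for 48 hours at five concentrations; endpoints were interpolated linearly between bracketing concentrations, or set to the highest concentration if not reached. Abbreviation: GI50, concentration required for 50% inhibition of growth. The concentration for full growth arrest is given as TGI.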

Regarding `O=C(Nc1ccc(-n2cc(-c3ccncc3)c(-c3ccc(Cl)c(O)c3)n2)cc1)Nc1cc(C(F)(F)F)cc(C(F)(F)F)c1`, the GI50 in assay [1] was 2.11 µM; in assay [2] it was 1.77 µM; in [3], 0.404 µM; in [4] it was 1.85 µM; in assay [5], 1.97 µM; in assay [6] it was 1.77 µM. Besides, the GI50 was 1.2 µM in assay [7], 1.95 µM in assay [8] and 3.01 µM in [9]. Besides, the TGI is 4.93 µM in assay [1]; 3.45 µM in assay [2]; 3.98 µM in assay [3]; 8 µM in assay [4]; 5.51 µM in [5]; 3.57 µM in assay [6]. For the same compound, the TGI in [7] came out at 2.81 µM; in assay [8], 7.37 µM; in assay [9], 9.97 µM.
On to `Nc1nc(Nc2ccc3c(c2)CC[C@@H](N2CCCC2)CC3)nn1-c1cc2c(nn1)-c1ccccc1CCC2`, for which the GI50 in [1] is 1.82 µM; in [2], 1.69 µM; in [3] it was 1.44 µM; in assay [4], 2.16 µM; in [5] it was 1.68 µM; in assay [6], 1.22 µM. Moreover, the GI50 is 0.82 µM in assay [8] and 1.83 µM in assay [9]. Also, the TGI in assay [1] was 3.55 µM; in assay [2], 3.1 µM; in assay [3], 3.31 µM; in assay [4], 5.1 µM; in [5], 3.29 µM; in assay [6], 2.5 µM. Besides, the TGI in assay [8] came to 3.63 µM; in [9] it was 3.45 µM.
Consider `CCC1=C[C@@H]2CN(C1)Cc1c([nH]c3ccccc13)[C@@](C(=O)OC)(c1cc3c(cc1OC)N(C=O)[C@H]1[C@@](O)(C(=O)OC)[C@H](OC(C)=O)[C@]4(CC)[C@@H]5C[C@@H]5CN5CC[C@]31[C@@H]54)C2`, for which the GI50 in assay [1] was 0.00112 µM; in assay [2] it was less than 0.000625 µM; in assay [3], 0.054 µM; in assay [10] it was less than 0.000625 µM; in assay [4], less than 0.000625 µM; in assay [6], 0.253 µM. Moreover, the results for the GI50 in assay [7], in assay [8] and in [9] were less than 0.000625 µM, 0.000789 µM and 0.00127 µM, respectively. Further, the TGI is less than 0.000625 µM in [2]; more than 6.25 µM in assay [3]; more than 6.25 µM in assay [10]; more than 6.25 µM in assay [4]; more than 6.25 µM in assay [6]; 0.00122 µM in [7]. Moreover, the TGI in assay [8] and in [9] was more than 6.25 µM in each case.
With `Cc1ncc([N+](=O)[O-])n1CCNS(=O)(=O)CCCn1ccnc1[N+](=O)[O-]`, the TGI in [1], in assay [2], in assay [3], in assay [10], in assay [4] and in assay [5] was more than 100 µM throughout. The TGI in assay [6], in assay [7] and in assay [8] was more than 100 µM in each case.
Consider `N#CC1=C(N)N=C(N2CCCCC2)C(C#N)C12Nc1ccccc1S2` (stereo not drawn), for which the GI50 in assay [1] was 17.1 µM; in [2], 0.0184 µM; in assay [3], 37.9 µM; in [10], 84 µM; in [4], 35 µM; in assay [5], 28.7 µM. For the same compound, the results for the GI50 in assay [7], in assay [8] and in assay [9] were 29.3 µM, more than 100 µM and 41 µM, respectively. Besides, the TGI is 58.7 µM in assay [1]; 14.3 µM in assay [2]; more than 100 µM in assay [3]; more than 100 µM in assay [10]; more than 100 µM in [4]; 91.1 µM in assay [5]. Also, the TGI is 82.6 µM in assay [7], more than 100 µM in assay [8] and more than 100 µM in assay [9].
With `CCCCCCCCCNCCCCCCCCC`, the GI50 in assay [1] was 1.56 µM; in [2], 1.85 µM; in assay [3], 1.75 µM; in [10], 1.96 µM; in [4], 1.91 µM; in assay [5], 2.15 µM. For the same compound, the GI50 in assay [6] was 1.49 µM; in [7], 1.77 µM; in [9] it was 2.78 µM. Moreover, the TGI is 3.21 µM in [1]; 3.58 µM in assay [2]; 3.78 µM in assay [3]; 4.18 µM in assay [10]; 3.59 µM in assay [4]; 5.95 µM in assay [5]. Besides, the TGI was 3.09 µM in assay [6], 3.22 µM in assay [7] and 9.83 µM in [9].
As for `N#CC1=C(N)OC2=C(COc3ccc(F)cc32)C1c1ccc(Cl)cc1` (stereo not drawn), the GI50 in assay [1] is 26.1 µM; in assay [2], 28.5 µM; in [3], 78.3 µM; in assay [10] it was 26.6 µM; in assay [4] it was more than 100 µM; in assay [5], 37.3 µM. Also, the GI50 is 30.1 µM in [6] and 44.7 µM in [8]. The TGI was 88 µM in assay [1]; more than 100 µM in [2]; more than 100 µM in assay [3]; more than 100 µM in assay [10]; more than 100 µM in assay [4]; more than 100 µM in assay [5]. For the same compound, the TGI in assay [6] and in assay [8] was more than 100 µM each time.
`N#Cc1ccccc1NC(=O)/C(=N\NC(=O)c1ccncc1)C(c1cnc2ccc([N+](=O)[O-])cc2n1)[N+](=O)[O-]` (stereo not drawn): the TGI in assay [1], in assay [2], in [3], in assay [10], in assay [4] and in assay [5] was more than 100 µM in each case. Moreover, the TGI in assay [6] and in [8] was more than 100 µM in each case.
Consider `O=C1CCCCCCCC/C=C/CCC(c2ccco2)O1` (stereo not drawn), for which the GI50 in [1] is 40 µM; in assay [2], 99.6 µM; in [10], 13.6 µM; in assay [4], 21 µM; in assay [5], more than 100 µM; in assay [6], more than 100 µM. Moreover, the GI50 in assay [7] was 68 µM; in assay [8] it was 24.1 µM; in assay [9], 24 µM. In addition, the TGI in assay [1] is 97.6 µM; in [2], more than 100 µM; in [10] it was 37.6 µM; in assay [4], more than 100 µM; in [5], more than 100 µM; in assay [6], more than 100 µM. Besides, the TGI in [7] was more than 100 µM; in assay [8], 89.6 µM; in [9] it was 60.7 µM.
